Data set [1] deals with Hepatitis C virus serine protease, NS3/NS4A (Hepatitis C virus, UniProt A3EZI9+D2K2A8).
Description: Inhibition of recombinant full length HCV genotype 1a NS3/4A protease (1027 to 1711 residues) expressed in Escherichia coli strain BL21 (DE3) using RET S1 as substrate incubated for 1 min followed by substrate addition measured after 15 mins by FRET assay
In a further data set the test system is Hepatitis C virus. The experiment in a line: Antiviral activity against HCV genotype 1b Con1 infected in human HuH7.5 cells assessed as inhibition of viral replication after 4 days by luciferase reporter gene assay. To be noted: isolate Con1, Huh7.5, 96 h. The class given is functional, organism-based, Hepacivirus hominis. (In general: Reporter assays use an easily measured gene product as a stand-in for the process of interest.)

Data set [2] can be described thus: Drug uptake in Sprague-Dawley rat liver at 15 mg/kg, po administered via gavage by LC/MS/MS analysis. The class given is ADME, organism-based. To be noted: in vivo, read-out: Drug uptake.
A short description of data set [3]: AUC in Sprague-Dawley rat at 15 mg/kg, po administered via gavage or 5 mg/kg, iv administered as 10 mins infusion by LC/MS/MS analysis. The class given is ADME, organism-based. The note with it: in vivo.
Data set [4] can be described thus: Half life in human liver microsomes by LC/MS/MS analysis. The class given is ADME, microsome. In general terms: Liver microsomes are a subcellular fraction often used to study metabolism.
The nature of data set [5]: Oral bioavailability in Sprague-Dawley rat at 15 mg/kg, administered via gavage by LC/MS/MS analysis. The data set is classed as ADME, organism-based. The note with it: in vivo.
Data set [6] can be described thus: Elimination half life in Sprague-Dawley rat at 15 mg/kg, po administered via gavage or 5 mg/kg, iv administered as 10 mins infusion by LC/MS/MS analysis. The data set is classed as ADME, organism-based. To be noted: in vivo, read-out: beta t1/2 (converted).
Data set [7] is described as follows: Clearance in Sprague-Dawley rat at 15 mg/kg, po administered via gavage or 5 mg/kg, iv administered as 10 mins infusion by LC/MS/MS analysis. The class given is ADME, organism-based. The note with it: in vivo.
The nature of data set [8]: Permeability from apical to basolateral side in human Caco2 cells. The data set is classed as ADME, cell-based. The note with it: Caco-2, read-out: permeability. (In general: Caco-2 cells form a polarised layer with tight junctions and transporters.)
The nature of data set [9]: Permeability from basolateral to apical side in human Caco2 cells. The data set is classed as ADME, cell-based. To be noted: Caco-2, read-out: permeability.

Hepatitis C virus serine protease, NS3/NS4A, sequence (D2K2A8 whole entry): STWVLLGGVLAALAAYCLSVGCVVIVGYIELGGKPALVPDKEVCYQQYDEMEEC
Hepatitis C virus serine protease, NS3/NS4A, sequence (A3EZI9 whole entry): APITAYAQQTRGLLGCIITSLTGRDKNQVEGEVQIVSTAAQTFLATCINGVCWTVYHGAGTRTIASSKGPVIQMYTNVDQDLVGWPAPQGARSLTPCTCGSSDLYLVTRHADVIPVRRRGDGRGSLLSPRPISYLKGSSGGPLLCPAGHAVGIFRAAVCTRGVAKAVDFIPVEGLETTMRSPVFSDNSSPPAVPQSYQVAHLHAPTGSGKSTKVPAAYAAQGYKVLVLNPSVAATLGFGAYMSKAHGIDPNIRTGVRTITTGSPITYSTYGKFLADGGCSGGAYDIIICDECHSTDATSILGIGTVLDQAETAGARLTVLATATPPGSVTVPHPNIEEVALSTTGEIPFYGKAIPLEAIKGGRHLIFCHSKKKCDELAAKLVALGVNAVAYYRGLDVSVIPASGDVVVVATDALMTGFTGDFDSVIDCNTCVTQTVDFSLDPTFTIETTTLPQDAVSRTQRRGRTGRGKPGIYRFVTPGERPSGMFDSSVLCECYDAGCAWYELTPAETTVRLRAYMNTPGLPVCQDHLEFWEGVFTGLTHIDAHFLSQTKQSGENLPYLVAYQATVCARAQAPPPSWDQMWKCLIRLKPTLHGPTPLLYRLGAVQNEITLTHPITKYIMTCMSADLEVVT

`CC[C@@H]1C[C@]1(NC(=O)[C@@H]1C[C@@H](Oc2ncc(OC)c3ccc(Cl)cc23)CN1C(=O)[C@@H](NC(=O)OC(C)(C)C)C(C)(C)C)C(=O)NS(=O)(=O)C1CC1`: half-maximal inhibition in data set [1] (IC50) was put at 0.005 µM. Moreover, the EC50 in the data set on Hepatitis C virus was found to be 0.016 µM. Also, the concentration in data set [2] came out at 40.3 µM. In data set [3], the AUC at 10 min came to 6.89 µM·h.
With `COc1cnc(O[C@@H]2C[C@@H](C(=O)NC3(C(=O)NS(=O)(=O)C4CC4)CCC3)N(C(=O)[C@@H](NC(=O)OC(C)(C)C)C(C)(C)C)C2)c2cc(Cl)ccc12`, the midpoint of inhibition in data set [1], the IC50, lay at 0.261 µM. Further, in the data set with Hepatitis C virus, the concentration for a half-maximal effect (EC50) was determined as 1.28 µM.
For the compound `COc1cnc(O[C@@H]2C[C@@H](C(=O)N[C@H](CC(F)F)C(=O)NS(=O)(=O)C3CC3)N(C(=O)[C@@H](NC(=O)OC(C)(C)C)C(C)(C)C)C2)c2cc(Cl)ccc12`, the 50% inhibitory concentration (IC50) in data set [1] was found to be 2.48 µM. Also, the EC50 with Hepatitis C virus is above 1 µM.
With `COc1cnc(O[C@@H]2C[C@@H](C(=O)NC3(C(=O)NS(=O)(=O)C4CC4)CC3)N(C(=O)[C@@H](NC(=O)OC(C)(C)C)C(C)(C)C)C2)c2cc(Cl)ccc12`, it took 0.04 µM to reach half-maximal inhibition in [1] (IC50). The compound further displayed a half-life in data set [4] of 2 h. The EC50 with Hepatitis C virus is 0.336 µM.
`CC[C@@H](NC(=O)[C@@H]1C[C@@H](Oc2ncc(OC)c3ccc(Cl)cc23)CN1C(=O)[C@@H](NC(=O)OC(C)(C)C)C(C)(C)C)C(=O)NS(=O)(=O)C1CC1`: the IC50 in data set [1] came out at 7.98 µM. Further, the EC50 with Hepatitis C virus is above 1 µM.
Regarding `COc1cnc(O[C@@H]2C[C@@H](C(=O)N[C@]3(C(=O)NS(=O)(=O)C4CC4)C[C@H]3C(F)(F)F)N(C(=O)[C@@H](NC(=O)OC(C)(C)C)C(C)(C)C)C2)c2cc(Cl)ccc12`, in data set [1], it took 0.017 µM to reach half-maximal inhibition (IC50). The same compound showed a half-life in data set [4] of 0.783 h. The EC50 in the data set on Hepatitis C virus came to 0.125 µM.
`COc1cnc(O[C@@H]2C[C@@H](C(=O)N[C@@H](CC(F)F)C(=O)NS(=O)(=O)C3CC3)N(C(=O)[C@@H](NC(=O)OC(C)(C)C)C(C)(C)C)C2)c2cc(Cl)ccc12` had an IC50 in data set [1] of 0.976 µM. The EC50 in the data set with Hepatitis C virus amounted to 0.509 µM.
Turning to `C=CC[C@](C)(NC(=O)[C@@H]1C[C@@H](Oc2ncc(OC)c3ccc(Cl)cc23)CN1C(=O)[C@@H](NC(=O)OC(C)(C)C)C(C)(C)C)C(=O)NS(=O)(=O)C1CC1`, the IC50 in data set [1] is 33 µM. In addition, the half-life in [4] came out at 0.892 h. In addition, in the data set on Hepatitis C virus, the EC50 is 23 µM.
For `COc1cnc(O[C@@H]2C[C@@H](C(=O)N[C@]3(C(=O)NS(=O)(=O)C4CC4)C[C@H]3C3CC3)N(C(=O)[C@@H](NC(=O)OC(C)(C)C)C(C)(C)C)C2)c2cc(Cl)ccc12`, the 50% inhibitory concentration (IC50) in [1] was 0.006 µM. For the same compound, the EC50 in the data set with Hepatitis C virus worked out at 0.0183 µM. The same compound yielded an exposure (AUC) at 10 min in data set [3] of 19.6 µM·h. The same compound displayed a bioavailability in data set [5] of 34 to 44.2%. In data set [6], the half-life was 6 to 10 h. Further, the clearance in data set [7] was determined as 0.312 L/h/kg.
In the case of `COc1cnc(O[C@@H]2C[C@@H](C(=O)N[C@]3(C(=O)NS(=O)(=O)C4CC4)C[C@H]3C)N(C(=O)[C@@H](NC(=O)OC(C)(C)C)C(C)(C)C)C2)c2cc(Cl)ccc12`, in data set [1], the IC50 was 0.013 µM. Besides, the half-life in data set [4] turned out to be 1.6 h. For the same compound, in the data set with Hepatitis C virus, the concentration giving a half-maximal response (EC50) worked out at 0.064 µM.
Take `C=C[C@@H]1C[C@]1(NC(=O)[C@@H]1C[C@@H](Oc2ncc(OC)c3ccc(Cl)cc23)CN1C(=O)[C@@H](NC(=O)OC(C)(C)C)C(C)(C)C)C(=O)NS(=O)(=O)C1CC1`: the AUC at 10 min in data set [3] is 1 µM·h.
In data set [1], `CC[C@H](NC(=O)[C@@H]1C[C@@H](Oc2ncc(OC)c3ccc(Cl)cc23)CN1C(=O)[C@@H](NC(=O)OC(C)(C)C)C(C)(C)C)C(=O)NS(=O)(=O)C1CC1` showed an IC50 of 3.08 µM. In addition, the EC50 in the data set with Hepatitis C virus was above 1 µM.
In the case of `COc1ccc2c(O[C@@H]3C[C@@H](C(=O)NC(CC(F)F)C(=O)NS(=O)(=O)C4CC4)N(C(=O)[C@@H](NC(=O)OC(C)(C)C)C(C)(C)C)C3)cc(-c3ccccc3)nc2c1` (stereo partly drawn), the half-maximal inhibitory concentration (IC50) in data set [1] was above 1 µM.
`COc1cnc(O[C@@H]2C[C@@H](C(=O)NC(C)(C)C(=O)NS(=O)(=O)C3CC3)N(C(=O)[C@@H](NC(=O)OC(C)(C)C)C(C)(C)C)C2)c2cc(Cl)ccc12` displayed an IC50 in [1] of 2.19 µM. For the same compound, the EC50 in the data set with Hepatitis C virus is above 1 µM.
For `COc1cnc(O[C@@H]2C[C@@H](C(=O)N[C@]3(C(=O)NS(=O)(=O)C4CC4)C[C@H]3C(F)F)N(C(=O)[C@@H](NC(=O)OC(C)(C)C)C(C)(C)C)C2)c2cc(Cl)ccc12`, the half-life is 2 h in [4] and 2.6 h in data set [6]. Besides, the EC50 in the data set on Hepatitis C virus fell in the range of 0.0076 to 0.008 µM. Further, the Papp A→B in [8] is below 15 nm/s. In addition, the Papp B→A in [9] is 47 nm/s. Also, the concentration in data set [2] worked out at 0.27 µM. In [3], this compound yielded an AUC at 10 min of 0.05 µM·h. In [5], this compound displayed a bioavailability of 0.9%. In addition, in data set [7], the clearance is 3.48 L/h/kg.
`COc1cnc(O[C@@H]2C[C@@H](C(=O)N[C@]3(C(=O)NS(=O)(=O)C4CC4)C[C@H]3CC(F)F)N(C(=O)[C@@H](NC(=O)OC(C)(C)C)C(C)(C)C)C2)c2cc(Cl)ccc12` showed a 50% inhibitory concentration (IC50) in [1] of 0.014 µM. In addition, the half-life in data set [4] turned out to be 3.33 h. Further, in the data set with Hepatitis C virus, the EC50 was 0.031 µM.

In general, IC50 refers to the concentration at which inhibition is half-maximal. What is called EC50 is the concentration needed to bring the measured effect to its halfway point. Broadly, the AUC is concentration integrated over time. Read a high AUC as more exposure. The term bioavailability denotes the share of a dose that reaches the circulation, judged against a reference dose that is usually intravenous. High values mean good availability, low ones poor availability.

(Values after ChEMBL document CHEMBL4138306, “Potent Inhibitors of Hepatitis C Virus NS3 Protease: Employment of a Difluoromethyl Group as a Hydrogen-Bond Donor” (ACS Med Chem Lett, 2018).)
